Measured values: ChEMBL document CHEMBL6103549, “PRMT7 in cancer: Structure, effects, and therapeutic potentials” (Eur J Med Chem, 2025)

What was measured:
[1] = biological target: T1, Protein arginine N-methyltransferase 7 (Homo sapiens, UniProt Q9NVM4); test: Inhibition of human recombinant His-tagged PRMT7 extracted from Escherichia coli BL21 (DE3)
T1 sequence (Q9NVM4 whole entry): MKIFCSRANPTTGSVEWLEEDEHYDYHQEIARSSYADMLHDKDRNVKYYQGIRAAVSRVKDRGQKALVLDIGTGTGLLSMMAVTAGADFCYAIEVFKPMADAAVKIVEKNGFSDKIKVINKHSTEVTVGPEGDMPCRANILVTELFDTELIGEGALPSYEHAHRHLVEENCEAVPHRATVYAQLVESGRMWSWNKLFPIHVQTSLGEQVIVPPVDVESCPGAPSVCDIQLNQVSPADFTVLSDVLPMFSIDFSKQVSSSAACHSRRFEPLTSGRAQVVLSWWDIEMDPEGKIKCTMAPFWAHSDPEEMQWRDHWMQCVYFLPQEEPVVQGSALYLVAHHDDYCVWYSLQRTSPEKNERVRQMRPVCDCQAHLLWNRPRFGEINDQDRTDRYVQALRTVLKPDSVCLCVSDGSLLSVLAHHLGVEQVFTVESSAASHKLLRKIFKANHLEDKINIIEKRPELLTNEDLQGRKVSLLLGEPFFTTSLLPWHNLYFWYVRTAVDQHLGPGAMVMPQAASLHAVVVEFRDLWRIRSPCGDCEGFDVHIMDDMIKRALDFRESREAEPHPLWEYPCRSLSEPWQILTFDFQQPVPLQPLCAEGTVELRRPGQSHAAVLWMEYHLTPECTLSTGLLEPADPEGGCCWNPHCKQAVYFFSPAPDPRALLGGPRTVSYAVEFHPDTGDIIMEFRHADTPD

MCF7 = test: Antiproliferative activity against human MCF7 cells assessed as reduction in cell viability by MTT assay; assay type: functional, cell-based
[2] = biological target: T1, Protein arginine N-methyltransferase 7; test: Inhibition of human PRMT7 in HEK293T cells assessed as reduction in HSP70 methylation; assay type: cell-based
[3] = biological target: T1, Protein arginine N-methyltransferase 7; test: Inhibition of human PRMT7 in HCT-116 cells assessed as reduction in HSP70 methylation; assay type: cell-based
KB = test: Antiproliferative activity against human KB cells assessed as reduction in cell viability by MTT assay; assay type: functional, cell-based
[4] = Antiproliferative activity against human MEF cells assessed as reduction in cell viability by MTT assay; assay type: functional, cell-based
HepG2 = test: Antiproliferative activity against human HepG2 cells assessed as reduction in cell viability by MTT assay; assay type: functional, cell-based
[5] = biological target: T1, Protein arginine N-methyltransferase 7; test: Inhibition of full length human recombinant PRMT7 extracted from Sf9 cells using […] as substrate incubated for 1 hr by TopCount scintillation proximity assay; assay type: cell-free
[6] = biological target: Protein arginine N-methyltransferase 5 (Homo sapiens, UniProt O14744); test: Inhibition of human PRMT5
Chain of Protein arginine N-methyltransferase 5 (O14744 whole entry): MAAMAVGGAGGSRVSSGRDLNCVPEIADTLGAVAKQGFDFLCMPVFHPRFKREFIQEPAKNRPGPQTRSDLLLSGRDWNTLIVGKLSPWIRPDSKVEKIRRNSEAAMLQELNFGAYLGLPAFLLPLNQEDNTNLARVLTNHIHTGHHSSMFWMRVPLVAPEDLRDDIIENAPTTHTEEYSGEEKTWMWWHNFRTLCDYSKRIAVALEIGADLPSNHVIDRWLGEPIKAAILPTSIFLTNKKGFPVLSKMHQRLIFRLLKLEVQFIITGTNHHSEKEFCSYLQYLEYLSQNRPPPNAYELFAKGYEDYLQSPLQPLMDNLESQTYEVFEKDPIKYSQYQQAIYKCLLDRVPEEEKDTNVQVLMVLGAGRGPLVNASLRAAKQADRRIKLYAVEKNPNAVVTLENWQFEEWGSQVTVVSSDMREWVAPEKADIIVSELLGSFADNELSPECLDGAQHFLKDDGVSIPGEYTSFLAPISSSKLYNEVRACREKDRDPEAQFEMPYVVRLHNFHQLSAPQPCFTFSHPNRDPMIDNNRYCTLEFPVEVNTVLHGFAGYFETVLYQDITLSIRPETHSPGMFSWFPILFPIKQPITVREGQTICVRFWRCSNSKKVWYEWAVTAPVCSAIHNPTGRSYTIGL

[7] = biological target: T1, Protein arginine N-methyltransferase 7; test: Inhibition of human PRMT7

## C/N=C(\N)N/N=C(\C)c1ccc2oc3ccc(/C(C)=N/N/C(N)=N/C)cc3c2c1
[1]
  IC50: 23.3 µM

## CC1=C(C)C(=O)C(C(C)(C)CC(=O)N(CCCCSC[C@H]2O[C@@H](n3cnc4c(N)ncnc43)[C@H](O)[C@@H]2O)Cc2cccc(-c3ccc(Cl)cc3)c2)=C(C)C1=O
MCF7
  IC50: 2.2 µM
[2]
  IC50: 2.4 µM
[3]
  IC50: 2.4 µM
KB
  IC50: 2.2 µM
[4]
  IC50: 28.4 µM
HepG2
  IC50: 2.2 µM

## Nc1ncnc2c1ncn2[C@@H]1O[C@H](CSCCCCNCc2cccc(-c3ccc(Cl)cc3)c2)[C@@H](O)[C@H]1O
[5]
  IC50: 2.5 µM

## COc1cc(-c2ncc(F)c(Nc3ccc4nc(C)cc(N)c4c3)n2)cc(OC)c1OC
[6]
  IC50: 50 µM
[7]
  IC50: 5 µM
